The results in this text go back to publication PMC6100082, “Pyridine-Ureas as Potential Anticancer Agents: Synthesis and In Vitro Biological Evaluation” (Molecules : A Journal of Synthetic Chemistry and Natural …, 2018).

SMILES strings stand for the structures.

Series [1] relates to non-tumorigenic human lung fibroblast WI-38 cell line. Kind of series: Cytotoxic activity against non-tumorigenic cells, MTT assay. The note with it: WI-38, MTT. In kind it is cell-based. Here is the method: The cytotoxic activity of compounds 8b and 8e were evaluated against non-tumorigenic human lung fibroblast WI-38 cell line utilizing the MTT colorimetric assay developed by T. Mosmann (Table 3).
MCF-7 (human breast cancer cell line) and WI-38 (human lung fibroblast cell line), were obtained from American Type Culture Collection (Manassas, VA, USA). The cells were propagated in DMEM and supplemented with 10% heat-inactivated FBS (Hyclone), 10 μg/mL of insulin (Manufacturer, Sigma, St. Louis, MO, USA), and 1% penicillin-streptomycin. MTT assay was utilized to examine the in vitro anti-proliferative activity of the newly prepared ureas following the reported procedures. […] The data presented are the mean of at least three separate experiments.
In general terms: Tetrazolium assays rely on reduction of a dye to a coloured formazan, in cell work by metabolically active cells.

A further series has as its system A549/ATCC. Kind of series: NCI one-dose SRB assay (Non-Small Cell Lung Cancer). The class given is cell-based, human. On the procedure:
(§1) The structures of all the newly prepared pyridine-ureas 8a–n were submitted to the National Cancer Institute (NCI) Developmental Therapeutic Program. Eight compounds 8b, 8d, 8e, 8i, 8j and 8l–n were selected to be examined for their in vitro growth inhibitory activity. The anticancer assays were carried out according to the protocol of the Drug Evaluation Branch, NCI, Bethesda. The selected pyridine-ureas were tested at one dose primary anticancer assay against a panel of approximately 58 cancer lines (concentration 10^−5 M). The tested human cancer cell lines emerged from nine different cancer subtypes: leukemia, colon, melanoma, ovarian, lung, CNS, renal, breast and prostate cancers. The sulforhodamine B (SRB) protein assay was adopted to estimate the cell viability and growth. The results were reported as mean-graph of the percentage growth of the treated cells, and presented as percentage growth inhibition (GI%) caused by the test compounds (Table 2).
(§2) The anticancer assays were performed in accordance with the protocol of the Drug Evaluation Branch, NCI, Bethesda. A 48 h drug exposure protocol was used and sulforhodamine B (SRB) protein assay was applied to estimate the cell viability and growth, as reported earlier.
On the technique in general: The SRB assay estimates cell density from bound dye.

The test system of the next series is EKVX. The description is as above. In kind it is cell-based, human. On the procedure:
as §1, §2

The test system of another series is HOP-62. The series is described as above. In kind it is cell-based, human. On the procedure: as §1, §2
A further series relates to HOP-92. Described as above. In kind it is cell-based, human. Here is the method: as §1, §2
The next series concerns NCI-H226. The series is described as above. In kind it is cell-based, human. Here is the method:
as §1, §2

Another series relates to NCI-H23. The description is as above. In kind it is cell-based, human. Here is the method:
as §1, §2

In another series the test system is NCI-H322M. The series is described as above. In kind it is cell-based, human. Here is the method:
as §1, §2

For another series, the system named is NCI-H460. Described as above. The class given is cell-based, human. Here is the method: as §1, §2
A further series deals with NCI-H522. The series is described as above. The class given is cell-based, human. Here is the method: as §1, §2
The next series addresses VEGFR-2 (Homo sapiens, UniProt P35968). Kind of series: VEGFR-2 inhibitory assay (Alpha Screen, anti-phosphotyrosine antibody).
Setting [2] is: Homo sapiens, 10 μM, read-out: Percentage growth inhibition (GI%).

Sequence of VEGFR-2 (P35968 20-1356, species assumed): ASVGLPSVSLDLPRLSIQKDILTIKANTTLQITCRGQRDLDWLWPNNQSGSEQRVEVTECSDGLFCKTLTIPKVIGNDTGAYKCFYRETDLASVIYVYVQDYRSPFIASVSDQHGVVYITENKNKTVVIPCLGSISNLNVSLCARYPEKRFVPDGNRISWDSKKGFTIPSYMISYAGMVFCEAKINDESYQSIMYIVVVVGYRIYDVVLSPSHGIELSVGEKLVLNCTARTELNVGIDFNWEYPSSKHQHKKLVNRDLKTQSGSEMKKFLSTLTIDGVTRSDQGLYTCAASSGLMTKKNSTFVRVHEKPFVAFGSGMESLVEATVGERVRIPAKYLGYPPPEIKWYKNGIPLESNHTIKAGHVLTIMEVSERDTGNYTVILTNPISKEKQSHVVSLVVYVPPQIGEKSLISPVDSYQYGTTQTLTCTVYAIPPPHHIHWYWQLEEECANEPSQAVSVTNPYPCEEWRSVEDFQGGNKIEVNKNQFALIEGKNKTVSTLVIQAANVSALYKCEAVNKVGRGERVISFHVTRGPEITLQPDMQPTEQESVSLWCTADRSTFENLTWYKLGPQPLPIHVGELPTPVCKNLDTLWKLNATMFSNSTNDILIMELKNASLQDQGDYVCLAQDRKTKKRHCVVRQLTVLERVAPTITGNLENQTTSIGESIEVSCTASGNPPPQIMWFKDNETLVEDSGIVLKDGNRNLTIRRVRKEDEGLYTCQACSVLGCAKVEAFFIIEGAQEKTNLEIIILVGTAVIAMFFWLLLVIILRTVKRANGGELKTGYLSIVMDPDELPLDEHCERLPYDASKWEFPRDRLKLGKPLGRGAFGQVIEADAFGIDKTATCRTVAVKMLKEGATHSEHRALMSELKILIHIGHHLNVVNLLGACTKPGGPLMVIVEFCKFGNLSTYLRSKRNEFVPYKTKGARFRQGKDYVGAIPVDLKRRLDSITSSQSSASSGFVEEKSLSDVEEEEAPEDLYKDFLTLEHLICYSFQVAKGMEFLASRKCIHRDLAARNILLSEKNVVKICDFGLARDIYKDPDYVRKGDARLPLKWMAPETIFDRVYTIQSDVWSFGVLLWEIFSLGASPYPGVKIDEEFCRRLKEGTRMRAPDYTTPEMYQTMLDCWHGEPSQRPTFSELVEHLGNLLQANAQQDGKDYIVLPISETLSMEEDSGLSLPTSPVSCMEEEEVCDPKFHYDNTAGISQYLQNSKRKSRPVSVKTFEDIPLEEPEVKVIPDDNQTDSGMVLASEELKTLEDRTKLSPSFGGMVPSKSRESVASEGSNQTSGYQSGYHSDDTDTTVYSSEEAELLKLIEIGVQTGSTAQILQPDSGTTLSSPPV

Regarding `COc1ccc(-c2ccc(NC(=O)Nc3ccc(Cl)c(C(F)(F)F)c3)c(C)n2)cc1` [Compound 8e, 1-(4-Chloro-3-(trifluoromethyl)phenyl)-3-(6-(4-methoxyphenyl)-2-methylpyridin-3-yl)urea], the melting point (commonly the temperature of the solid-liquid transition) lay in the range of 195 to 197 °C. Half-maximal inhibition in [1] (IC50) was put at 83.1 ± 5.21 µM. Further, in the series on A549/ATCC (1.00E-5 Molar), the “Growth Percent” value came out at 38.71%. For the same compound, the inhibition (as a rule, the share of the control response that was lost under treatment) at 10 µM with A549/ATCC (setting [2]) turned out to be 62%. In addition, the “Growth Percent” value in the series on EKVX (1.00E-5 Molar) was found to be 49.19%. In the series with EKVX (setting [2]), the inhibition at 10 µM was 51%. Also, in the series on HOP-62 (HOP-62, 1.00E-5 Molar), the “Growth Percent” value worked out at 62.10%. For the same compound, in the series with HOP-62 (Homo sapiens, HOP-62, 10 μM, read-out: Percentage growth inhibition (GI%)), the inhibition at 10 µM turned out to be 38%. The “Growth Percent” value with HOP-92 (HOP-92, 1.00E-5 Molar) was found to be 27.03%. The inhibition at 10 µM with HOP-92 (Homo sapiens, HOP-92, 10 μM, read-out: Percentage growth inhibition (GI%)) stood at 73%. Also, the inhibition at 10 µM in the series with NCI-H226 (Homo sapiens, NCI-H226, 10 μM, read-out: Percentage growth inhibition (GI%)) amounted to 35%. Besides, in the series with NCI-H226 (NCI-H226, 1.00E-5 Molar), the “Growth Percent” value is 65.24%. The inhibition at 10 µM with NCI-H23 (Homo sapiens, NCI-H23, 10 μM, read-out: Percentage growth inhibition (GI%)) is 70%. In the series with NCI-H23 (NCI-H23, 1.00E-5 Molar), the “Growth Percent” value was 30.94%. The “Growth Percent” value in the series with NCI-H322M (1.00E-5 Molar) was determined as 71.44%. For the same compound, the inhibition at 10 µM in the series with NCI-H322M (setting [2]) came to 29%. Also, the inhibition at 10 µM with NCI-H460 (Homo sapiens, NCI-H460, 10 μM, read-out: Percentage growth inhibition (GI%)) worked out at 70%. Moreover, the “Growth Percent” value in the series with NCI-H460 (NCI-H460, 1.00E-5 Molar) amounted to 30.90%. The inhibition at 10 µM in the series on NCI-H522 (Homo sapiens, NCI-H522, 10 μM, read-out: Percentage growth inhibition (GI%)) turned out to be 76%. Also, the “Growth Percent” value with NCI-H522 (NCI-H522, 1.00E-5 Molar) turned out to be 24.81%. Besides, it took 3.93 ± 0.73 µM to reach half-maximal inhibition against VEGFR-2 (IC50).
